Test results taken from article PMC3292421 (International Journal of Nanomedicine, 2012).
Read-outs that look alike come from different tables or passages of the source.

Tests used:
[1] = 25°C
[2] = long-term animal studies; cited from earlier work
P-glycoprotein = conditions: cited from earlier work

O=C1Nc2ccccc2/C1=C1/Nc2ccccc2C1=O [indirubin]
Solubility ([1]; in Cremophor EL (surfactant)): 1.305 µmol/g | Solubility ([1]; in Cremophor RH40 (surfactant)): 0.631 µmol/g | Solubility ([1]; in GTCC (caprylic/capric triglyceride, oil)): 0.154 µmol/g | Solubility ([1]; in IPM (isopropyl myristate, oil)): 0.087 µmol/g | Solubility ([1]; in Labrafac Lipophile WL1349 (oil)): 0.159 µmol/g | Solubility ([1]; in Labrafil M2125CS (oil)): 0.338 µmol/g | Solubility ([1]; in Maisine 35-1 (oil)): 0.755 µmol/g | Solubility ([1]; in Olive oil (oil)): 0.145 µmol/g | Solubility ([1]; in PEG 200 (cosurfactant)): 0.093 µmol/g | Solubility ([1]; in PEG 400 (cosurfactant)): 0.143 µmol/g | Solubility ([1]; in Transcutol P (cosurfactant)): 1.356 µmol/g | Bone marrow toxicity and hematotoxicity [2]: neither bone marrow toxicity nor hematotoxicity | Influence of P-glycoprotein on transport through the rat intestine membrane (P-glycoprotein): not influenced
